Assay results from patent publication EP0051852A1, “Pyrimido(4,5-b)(1,4)thiazines and process for their preparation” (Stiftung Forschungsinstitut Borstel, priority 1980, dated 1982).

Test system: E.coli(mutaflor)
Assay: Bacterial growth kinetics, Coulter Counter (total cell count)
Format: cell-based
Set-up: unit not given here
Details: Coulter Counter (Gesamtkeimzahl); 75.0 µmol/l PTZ alone; 37°C, modified Sauton medium
Text: 2,4-Diamino-5-(3',4',5'-trimehoxybenzvl)-pyrimidins (TMP) können auf ihre eigene und in Kombination potenzierte antimikrobielle Wirkung mit Hilfe der Bakterienvermehrungskinetik wie folgt geprüft werden: • Es werden zu Bakterienkulturen (Beispiel E.coli) in der logarithmischen Wachstumsphase die genannten Inhibitoren allein oder in den oben beschriebenen Kombinationen hinzugefügt. Die Veränderung der Zahl der Bakterien als Funktion der Zeit wird mit einem Coulter Counter (Gesamtkeimzahl) bzw. mit Hilfe der Kolonienzählung (Plattentest,Lebendkeimzahl) ermittelt. Die Vermehrungskurven werden bei Abwesenheit und bei Anwesenheit der Hemmstoffe und ihrer oben beschriebenen Kombinationen ermittelt. Die aus ihnen ermittelten Änderungen in den Vermehrungsgeschwindigkeiten sin^dein Maß für die antibakterielle Wirkung.
TMP wurde 1,5 Stunden später als die anderen Verbindungen der Kultur zugesetzt.

Nc1nc(O)c2c(n1)SCC(CO)=N2 [PTZ, 2-Amino-4-hydroxy-6-hydroxymethyl-7H-pyrimido[4,5b][1,4]thiazin]
beobachtete Vermehrungsgeschwindigkeitskonstanten kbeob.: 3.82
